According to US10300071B2, “Compositions and methods for inhibition of mycobacteria” (priority 2014, dated 2019):
In brackets after ≈: the same amount, converted by molar mass. Like-named read-outs stand apart in the source and are kept apart here.

Tests used:
[1] = system: human fibroblast
[2] = system: plasma protein; assay: Plasma protein binding assay
Description: Protein plasma binding assays were conducted in female mice for each of the arylphenoxypropionate derivatives quizalofop-p, quizalofop-p-ethyl, fenoxaprop-p, and fenoxaprop-p-ethyl.

[3] = target: Mtb AccD6 (Mycobacterium tuberculosis, UniProt P9WQH5); assay: biochemical; assay type: biochemical
[4] = system: Mtb strain mc^2-7000; assay: microbe, parasite or virus in culture; assay type: cell-based, Mycobacterium tuberculosis; details: Mycobacterium tuberculosis, 144 h
[5] = Additional pharmacokinetic studies in rats
[6] = cited from earlier work
[7] = mammals, within three days; cited from earlier work
[8] = Pharmacokinetic studies in mice, plasma concentration after gavage (LC/MS)
[9] = CPRC; cited from earlier work
[10] = 1-year feeding study, dogs; cited from earlier work
[11] = rat, in vivo
[12] = in vivo; details: rat
[13] = system: S. cerevisiae
[14] = 300 μM malonyl-CoA, inhibitor 10 μM to 2000 μM, read-out: IC50
[15] = 6 days incubation at 37° C., resazurin, read on the 7th day, read-out: MIC
[16] = oral, 1 dose/day x 4 days, canola oil, NZ-331 200 mg/kg, NZ-332 and NZ-369 100 mg/kg

Chain of Mtb AccD6 (P9WQH5 whole entry, looked up): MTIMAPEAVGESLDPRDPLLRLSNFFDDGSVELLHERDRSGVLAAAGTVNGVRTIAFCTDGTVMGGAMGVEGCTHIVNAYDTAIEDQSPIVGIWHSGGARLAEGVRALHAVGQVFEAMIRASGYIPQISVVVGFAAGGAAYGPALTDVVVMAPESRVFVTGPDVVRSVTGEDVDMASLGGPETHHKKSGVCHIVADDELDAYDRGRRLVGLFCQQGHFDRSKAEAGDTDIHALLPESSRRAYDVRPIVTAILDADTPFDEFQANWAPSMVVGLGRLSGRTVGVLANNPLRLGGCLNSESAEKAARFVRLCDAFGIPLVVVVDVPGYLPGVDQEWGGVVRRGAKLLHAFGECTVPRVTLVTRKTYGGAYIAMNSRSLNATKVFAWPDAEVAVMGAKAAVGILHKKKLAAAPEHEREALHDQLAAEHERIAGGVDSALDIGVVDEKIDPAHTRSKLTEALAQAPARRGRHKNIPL

## CC(Oc1ccc(Oc2nc3ccc(Cl)cc3o2)cc1)C(=O)O (stereo not shown) [fenoxaprop-p, 2-{4-[(6-chloro-1,3-benzoxazol-2-yl)oxy]phenoxy}propanoic acid, reference compound]
[1]
  concentrations at which not toxic, human fibroblast cytotoxicity: ≥ 100 µM
[2]; female, mouse
  Percentage of Compound Bound: 98.58%
  Percentage of Compound Recovered: 76%
[3]; [14]
  IC50: 1500 nM
[4]; [15]
  MIC: 25 µM (≈ 8.34 µg/mL)

## CCOC(=O)[C@@H](C)Oc1ccc(Oc2cnc3cc(Cl)ccc3n2)cc1 [quizalofop-p-ethyl, ethyl (2R)-2-{4-[(6-chloroquinoxalin-2-yl)oxy]phenoxy}propanoate]
[5]
  time to convert from ester to acid: ~3 h
[5]; oral
  time of peak (maximum) blood concentration: six to nine
[5]; oral route
  oral absorption: absorbed to a considerable extent by the oral route
[6]
  LD50, rabbits: greater than 2,000 mg/kg
[2]; plasma
  stability under assay conditions (plasma esterase activity): not stable under assay conditions
[3]; [14]
  IC50: 2300 nM
[7]
  share of a single oral dose eliminated in urine: more than 90%
[8]; gavage 50 mg/kg
  concentration of quizalofop-p-ethyl detected at all collection timepoints: much lower than the concentration of quizalofop-p detected
[9]
  carcinogen classification: Group D carcinogen
[10]
  doses causing zero observed effects: up to 10 mg/kg/day
[4]; [15]
  MIC: 0.68 to 1.56 µM (≈ 0.254 to 0.582 µg/mL)

## CCOC(=O)[C@@H](C)Oc1ccc(Oc2nc3ccc(Cl)cc3o2)cc1 [fenoxaprop-p-ethyl, ethyl (2R)-2-{4-[(6-chloro-1,3-benzoxazol-2-yl)oxy]phenoxy}propanoate]
[1]
  concentrations at which not toxic, human fibroblast cytotoxicity: ≥ 100 µM
[2]
  stability under assay conditions (plasma esterase activity): not stable under assay conditions
[11]
  oral absorption: absorbed rapidly
[11]; po
  minimum rate of absorption (urinary excretion including cage washes and residues in tissues/organs): at least 40 % of the administered dose
  time at which test substance was already found in the blood: 15 min
  time of peak (maximum) blood concentration: 6 to 8 h
[12]; initial phase
  half-life: 540 to 660 min
[12]; terminal phase
  half-life: 4080 to 4500 min
[4]
  MIC: 1.56 µM (≈ 0.564 µg/mL)

## C[C@@H](Oc1ccc(Oc2cnc3cc(Cl)ccc3n2)cc1)C(=O)O [quizalofop-p, (2R)-2-{4-[(6-chloroquinoxalin-2-yl)oxy]phenoxy}propanoic acid, reference compound]
[2]; mouse plasma
  Percentage of Compound Bound: 96.8%
  Percentage of Compound Recovered: 90%
[3]
  IC50: 800 nM
[8]; quizalofop-p-ethyl or quizalofop-p in carboxymethylcellulose or canola oil, gavage 50 mg/kg, 8 hours after gavage
  peak plasma concentration of quizalofop-p: 35

## CNC(=O)C(C)c1ccc(Oc2nc3ccc(Cl)cc3s2)cc1 (stereo not shown) [NZ-369, 2-{4-[(6-chloro-1,3-benzothiazol-2-yl)oxy]phenyl}-N-methylpropanamide]
[1]
  concentrations at which not toxic, human fibroblast cytotoxicity: ≥ 100 µM
[3]; [14]
  IC50: 870 nM
[13]
  concentrations at which not toxic, s. cerevisiae cytotoxicity: ≥ 100 µM
[8]; [16]
  Plasma conc. 24 Hrs. after 1st dose: 0.74 (±0.09) μg/ml
  Plasma conc. 24 Hrs. after last dose: 0.57 (±0.07) μg/ml
[8]; single dose 200 mg/kg, canola oil, gavage, 2 hours after gavage
  peak plasma concentration (FIG. 10): 27.4
[8]; two doses 200 mg/kg 8 hours apart, canola oil, 2 hours after gavage
  peak plasma concentration (FIG. 11), 2 hours: 27.4
[4]; [15]
  MIC: 0.73 to 0.98 µM (≈ 0.253 to 0.34 µg/mL)
